# Organism: Rattus norvegicus
# Assay: DrugMatrix - Regimen: Daily Repeat
# Assay type: toxicity, organism-based, Sprague-Dawley
# Set-up: regimen Daily Repeat, gender Male, age 6-8 weeks
# Conditions: in vivo, po, route oral GAVAGE, […]; for ABSOLUTE BASOPHIL / ABSOLUTE EOSINOPHIL / ABSOLUTE LYMPHOCYTE / ABSOLUTE SEGMENTED NEUTROPHIL / BASOPHIL / EOSINOPHIL / ERYTHROCYTE COUNT / HEMATOCRIT / HEMOGLOBIN / LEUKOCYTE COUNT / LYMPHOCYTE / MEAN CORPUSCULAR HEMOGLOBIN / MEAN CORPUSCULAR HEMOGLOBIN CONCENTRATION / MEAN CORPUSCULAR VOLUME / MONOCYTE / NEUTROPHIL / NUCLEATED RED BLOOD CELLS / PLATELET COUNT: tissue Blood; for ALANINE AMINOTRANSFERASE / ALBUMIN / ALKALINE PHOSPHATASE / ASPARTATE AMINOTRANSFERASE / BLOOD UREA NITROGEN / CARBON DIOXIDE / CHLORIDE / CHOLESTEROL / CREATINE PHOSPHOKINASE / CREATININE / GLUCOSE / LACTATE DEHYDROGENASE / LIPASE / PHOSPHORUS / POTASSIUM / SODIUM / TOTAL BILIRUBIN / TOTAL PROTEIN / URIC ACID: tissue Plasma
# [1] = 15 mg/kg, 120 h, dose level Low, time 5 day
# [2] = 1200 mg/kg, 72 h, dose level High, time 3 day
# [3] = 1200 mg/kg, 120 h, dose level High, time 5 day
smiles,measurement,setting,value
CCC(C)(C)C(=O)O[C@H]1C[C@@H](C)C=C2C=C[C@H](C)[C@H](CC[C@@H]3C[C@@H](O)CC(=O)O3)[C@H]21 [SIMVASTATIN],ABSOLUTE BASOPHIL,[1],0 CELLS/uL
same,ABSOLUTE EOSINOPHIL,[1],0 CELLS/uL
same,ABSOLUTE LYMPHOCYTE,[1],6051 CELLS/uL
same,ABSOLUTE SEGMENTED NEUTROPHIL,[1],802.33 CELLS/uL
same,BASOPHIL,[1],0%
same,EOSINOPHIL,[1],0%
same,ERYTHROCYTE COUNT,[1],5.09 x10E6/uL
same,HEMATOCRIT,[1],32.87%
same,HEMOGLOBIN,[1],12.87 G/DL
same,LEUKOCYTE COUNT,[1],6.93 x10E3/uL
same,LYMPHOCYTE,[1],87.67%
same,MEAN CORPUSCULAR HEMOGLOBIN,[1],25.33 pg
same,MEAN CORPUSCULAR HEMOGLOBIN CONCENTRATION,[1],39.2 G/DL
same,MEAN CORPUSCULAR VOLUME,[1],64.63 fL
same,MONOCYTE,[1],1%
same,NEUTROPHIL,[1],11.33%
same,NUCLEATED RED BLOOD CELLS,[1],0 /100WBC
same,PLATELET COUNT,[1],1251.33 x10E3/uL
same,ALANINE AMINOTRANSFERASE,[1],57.67 u/L
same,ALBUMIN,[1],4 G/DL
same,ALKALINE PHOSPHATASE,[1],335.33 u/L
same,ASPARTATE AMINOTRANSFERASE,[1],77.67 u/L
same,BLOOD UREA NITROGEN,[1],14.67 mg/dL
same,CARBON DIOXIDE,[1],30.67 mmol/L
same,CHLORIDE,[1],99 MEQ/L
same,CHOLESTEROL,[1],66.33 mg/dL
same,CREATINE PHOSPHOKINASE,[1],168.67 u/L
same,CREATININE,[1],0.17 mg/dL
same,GLUCOSE,[1],178.67 mg/dL
same,LACTATE DEHYDROGENASE,[1],64 u/L
same,LIPASE,[1],9.33 u/L
same,PHOSPHORUS,[1],11.6 mg/dL
same,POTASSIUM,[1],5.71 MEQ/L
same,SODIUM,[1],144.13 MEQ/L
same,TOTAL BILIRUBIN,[1],0.1 mg/dL
same,TOTAL PROTEIN,[1],5.6 G/DL
same,URIC ACID,[1],0.67 mg/dL
same,ABSOLUTE BASOPHIL,[2],0 CELLS/uL
same,ABSOLUTE EOSINOPHIL,[2],0 CELLS/uL
same,ABSOLUTE LYMPHOCYTE,[2],6224.67 CELLS/uL
same,ABSOLUTE SEGMENTED NEUTROPHIL,[2],3273.67 CELLS/uL
same,BASOPHIL,[2],0%
same,EOSINOPHIL,[2],0%
same,ERYTHROCYTE COUNT,[2],6.06 x10E6/uL
same,HEMATOCRIT,[2],37.77%
same,HEMOGLOBIN,[2],14.83 G/DL
same,LEUKOCYTE COUNT,[2],9.57 x10E3/uL
same,LYMPHOCYTE,[2],66%
same,MEAN CORPUSCULAR HEMOGLOBIN,[2],24.57 pg
same,MEAN CORPUSCULAR HEMOGLOBIN CONCENTRATION,[2],39.27 G/DL
same,MEAN CORPUSCULAR VOLUME,[2],62.5 fL
same,MONOCYTE,[2],0.67%
same,NEUTROPHIL,[2],33.33%
same,NUCLEATED RED BLOOD CELLS,[2],0 /100WBC
same,PLATELET COUNT,[2],1143.67 x10E3/uL
same,ALANINE AMINOTRANSFERASE,[2],323.67 u/L
same,ALBUMIN,[2],4.43 G/DL
same,ALKALINE PHOSPHATASE,[2],403.67 u/L
same,ASPARTATE AMINOTRANSFERASE,[2],291.33 u/L
same,BLOOD UREA NITROGEN,[2],12 mg/dL
same,CARBON DIOXIDE,[2],33 mmol/L
same,CHLORIDE,[2],97.67 MEQ/L
same,CHOLESTEROL,[2],46.33 mg/dL
same,CREATINE PHOSPHOKINASE,[2],1429 u/L
same,CREATININE,[2],0.1 mg/dL
same,GLUCOSE,[2],174.33 mg/dL
same,LACTATE DEHYDROGENASE,[2],212.33 u/L
same,LIPASE,[2],26 u/L
same,PHOSPHORUS,[2],7.2 mg/dL
same,POTASSIUM,[2],5.3 MEQ/L
same,SODIUM,[2],144.93 MEQ/L
same,TOTAL BILIRUBIN,[2],0.17 mg/dL
same,TOTAL PROTEIN,[2],5.67 G/DL
same,URIC ACID,[2],0.5 mg/dL
same,ABSOLUTE BASOPHIL,[3],0 CELLS/uL
same,ABSOLUTE EOSINOPHIL,[3],0 CELLS/uL
same,ABSOLUTE LYMPHOCYTE,[3],2769 CELLS/uL
same,ABSOLUTE SEGMENTED NEUTROPHIL,[3],4331 CELLS/uL
same,BASOPHIL,[3],0%
same,EOSINOPHIL,[3],0%
same,ERYTHROCYTE COUNT,[3],6.93 x10E6/uL
same,HEMATOCRIT,[3],43.8%
same,HEMOGLOBIN,[3],17.4 G/DL
same,LEUKOCYTE COUNT,[3],7.1 x10E3/uL
same,LYMPHOCYTE,[3],39%
same,MEAN CORPUSCULAR HEMOGLOBIN,[3],25.1 pg
same,MEAN CORPUSCULAR HEMOGLOBIN CONCENTRATION,[3],39.7 G/DL
same,MEAN CORPUSCULAR VOLUME,[3],63.2 fL
same,MONOCYTE,[3],0%
same,NEUTROPHIL,[3],61%
same,NUCLEATED RED BLOOD CELLS,[3],0 /100WBC
same,PLATELET COUNT,[3],1317 x10E3/uL
same,ALANINE AMINOTRANSFERASE,[3],285 u/L
same,ALBUMIN,[3],4.7 G/DL
same,ALKALINE PHOSPHATASE,[3],273 u/L
same,ASPARTATE AMINOTRANSFERASE,[3],367 u/L
same,BLOOD UREA NITROGEN,[3],37 mg/dL
same,CARBON DIOXIDE,[3],35 mmol/L
same,CHLORIDE,[3],82 MEQ/L
same,CHOLESTEROL,[3],103 mg/dL
same,CREATINE PHOSPHOKINASE,[3],1419 u/L
same,CREATININE,[3],0.1 mg/dL
same,GLUCOSE,[3],205 mg/dL
same,LACTATE DEHYDROGENASE,[3],510 u/L
same,LIPASE,[3],55 u/L
same,PHOSPHORUS,[3],9 mg/dL
same,POTASSIUM,[3],4.84 MEQ/L
same,SODIUM,[3],136.7 MEQ/L
same,TOTAL BILIRUBIN,[3],0.2 mg/dL
same,TOTAL PROTEIN,[3],6.1 G/DL
same,URIC ACID,[3],0.6 mg/dL

# Reference: ChEMBL document CHEMBL3885881, “DrugMatrix”
